Where two headings read alike, the source gives them in different places.
Experiments:
[1] = Solubility assay in water, 0.1% hydrochloric acid and methanol; type: physicochemical
Description: The solubility was characterized by:
The term “very soluble” refers to that 1 g (mL) of solute can be dissolved in less than 1 mL of solvent;
The term “freely soluble” refers to that 1 g (mL) of solute can be dissolved in from 1 mL to 10 mL, not including 10 mL of solvent;
The term “soluble” refers to that 1 g (mL) of solute can be dissolved in from 10 mL to 30 mL, not including 30 mL of solvent;
The term “sparingly soluble” refers to that 1g (mL) of solute can be dissolved in from 30 mL to 100 mL, not including 100 mL of solvent;
The term “slightly soluble” refers to that 1g (mL) of solute can be dissolved in from 100 mL to 1000 mL, not including 1000 mL of solvent;
The term “very slightly soluble” refers to that 1g (mL) of solute can be dissolved in from 1000 mL to 10000 mL, not including 10000 mL of solvent;
The term “practically insoluble or insoluble” refers to that 1g (mL) of solute cannot be dissolved completely in 10000 mL of solvent.

human TPOR = biological target: T1, human TPOR (Homo sapiens, UniProt P40238); test: Proliferation effect on BAF3-TPOR cell (CCK-8); type: cell-based; settings: rate relative to rhTPO positive control
T1 construct: host or cells: BaF3 (murine pro-B cells), stably transfected, G418-selected
T1 sequence (P40238 26-635): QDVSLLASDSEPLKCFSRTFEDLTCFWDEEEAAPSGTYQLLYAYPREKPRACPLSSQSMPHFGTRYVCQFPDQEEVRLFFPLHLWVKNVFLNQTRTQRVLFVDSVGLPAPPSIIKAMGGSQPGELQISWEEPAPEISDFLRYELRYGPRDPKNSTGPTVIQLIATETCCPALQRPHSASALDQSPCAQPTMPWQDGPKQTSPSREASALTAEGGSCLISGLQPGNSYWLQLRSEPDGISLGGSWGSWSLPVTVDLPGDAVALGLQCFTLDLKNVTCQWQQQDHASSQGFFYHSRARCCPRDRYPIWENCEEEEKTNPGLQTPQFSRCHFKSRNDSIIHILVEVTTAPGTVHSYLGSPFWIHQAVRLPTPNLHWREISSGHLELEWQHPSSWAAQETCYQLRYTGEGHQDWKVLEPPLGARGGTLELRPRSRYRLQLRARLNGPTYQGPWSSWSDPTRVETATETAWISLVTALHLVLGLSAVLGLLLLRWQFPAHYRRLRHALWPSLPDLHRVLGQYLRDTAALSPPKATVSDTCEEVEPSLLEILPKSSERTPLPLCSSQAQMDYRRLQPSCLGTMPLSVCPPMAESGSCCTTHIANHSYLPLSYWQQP
Description: (1) Plasmid constructs: based on the TPO receptor (TPOR) sequence information from Entrez (Gene ID: 4325, Refseq: NM_005373), dual-site mutation was performed on EX-B0010-M02 plasmid by using QuikChange® Multi Site Directed Mutagenesis Kit (Stratagene). The sequence of primers containing multi-sites mutation was designed as follows: […]
The E. coli DH5α competent cells were transformed with mutated plasmid, and positive colonies were picked up through ampicillin selection. The mutation result was confirmed by sequence analysis.
(2) BAF3-TPOR stable transfected cell line: the following method was used to construct the BaF3 cell which stably over-expressed functional human TPOR. The successfully mutated EX-B0010-M02 plasmid ([…]) which expressed human TPOR and screening gene neomycin was transfected into wild-type BaF3 cells (1×10^7) by electroporation at 250V for 18 ms using an electric pulse generator (Electro Square Porator ECM830, BTX Division of Genetronic, Inc. US). The stable transfected cells BAF3-TPOR were selected with G418 (Gibco, US), then incubated in RPMI1640 medium plus 10% FBS (Gibco, US), […] G418, 5 ng/mL, rmIL-3 (Chemicon, US).
(1) Washing cells by centrifugation: a suitable amount of cell suspension was centrifuged at 1000 rpm for 5 minutes, and the supernatant was discarded. 10 mL of cell culture media without IL-3 was added. Then the resulting cell suspension was centrifuged at 1000 rpm for 5 minutes, and the supernatant was discarded.
(2) 1 mL of cell culture media without IL-3 was added to beat upon them to equality, and the number of a suitable amount of cell suspension was counted after dilution.
(3) According to the result of the cell counting, a cell suspension in a concentration of 100,000 cell/mL was prepared.
(4) 100 μL of cell suspension was transferred to each well of 96-well culture plate, and there were 3 parallel wells, that is, there were a blank control group (B), a negative control group (N), a positive control group of TPO (P) and a test compound group (S).
(5) The test compound was dissolved in DMSO to prepare a 10 mM stock solution, and then the solution was diluted with RPMI 1640 medium into a series of test samples at different concentration: 30 μM, 10 μM, 3 μM, 1 μM, 0.3 μM, 0.1 μM, 0.03 μM, 0.01 μM, 0.003 μM, 0.001 μM.
(6) 10 μL of test compound solution was transferred to each well respectively; 1 μL of rhTPO (10 ng/mL) was added to positive control well.
(7) The plates were incubated in an incubator at 5% CO2 and 37° C. for 24 hours.
(8) After incubation, 10 μL of CCK-8 solution was added to each well and the plates were incubated in the incubator for another 24 hours.
(9) OD value was detected at 450 nm by VICTORS (Perkin Elmer 1420-120) plate reader.
(1) The proliferation rate was calculated as follows: Rate=[(S−B)/(P−B)]*100%
S: OD value of wells which contain test compound.
B: OD value of blank control wells
P: OD value of positive control wells
(2) The EC50 value was calculated by Origin 7.0 software.

[2] = Pharmacokinetics assay in rats; type: in vivo, SD rats; settings: SD rats, intragastric, 50 mg/Kg (as free acid); for MRT: read-out: Mean Residence Time MRT; for Tmax: read-out: Time to peak Tmax
Summary of the method: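 SD rats, half male and half female, dosed intragastrically with compound suspended at 5 mg/mL (as free acid) in 1% sodium carboxymethyl cellulose; fed 2 h post-dose. Plasma concentrations over time were measured by HPLC-UV. Parameters came from a compartmental fit, with Cmax and tmax as observed values.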

[3] = Hygroscopicity assay, standing 48 hours at 25° C., humidity 79%; type: physicochemical; settings: 48 hours, 25° C., humidity 79%
Description: The hygroscopicity test of the compounds of the present disclosure after standing for 48 hours
1. The arid glass weighing bottle with a tap (external diameter is 50 mm, the height is 15 mm) was placed at 25° C.±1° C. suitably in a thermostatic drier (saturated ammonium sulfate solution was laid in the lower part, humidity was 79%) the day before the assay, precise weight was measured as (m1);
2. The above weighing bottle was covered with the compounds of the invention (about 1 g), and the thickness of the compounds were generally 1 mm, precise weight was measured as (m2);
3. The mouth of the weighing bottle was kept open and placed with the tap in the above conditions with constant temperature and humidity for 48 hours;
4. Put the tap back on the bottle, precise weight was measured as (m3)
The degree of hygroscopicity was defined as follows: […]
Deliquesce: turning into liquid by absorbing enough moisture.
High hygroscopicity: the percentage of hygroscopicity weight gain is not less than 15%.
Hygroscopicity: the percentage of hygroscopicity weight gain is less than 15%, but not less than 2%.
Sparing hygroscopicity: the percentage of hygroscopicity weight gain is less than 2%, but not less than 0.2%.
No hygroscopicity or almost no hygroscopicity: the percentage of hygroscopicity weight gain is less than 0.2%.

[4] = 0.1% hydrochloric acid, simulated gastric fluid, 0.1% hydrochloric acid, read-out: solubility
[5] = both sexes, SD, rat, plasma, po, 50 mg/kg

SMILES | solubility [1, 4] [µg/mL] | EC50 (human TPOR) [nM] | MRT [2, 5] [h] | Tmax [2, 5] [h] | solubility ([1]; methanol) [µg/mL] | solubility ([1]; water) [µg/mL] | Area Under Curve AUC ([2]; 50 mg/kg) [µg·h/mL] | Clearance CL/F ([2]; 50 mg/kg) [mL/min/kg] | Half-Life t½ ([2]; 50 mg/kg) [h] | Plasma Conc. Cmax ([2]; 50 mg/kg) [ng/mL] | Time to peak Tmax ([2]; 50 mg/kg) [h] | also measured
CC1=NN(c2ccc3c(c2)CCCC3)C(=O)/C1=N\Nc1cccc(-c2ccc(C(=O)[O-])o2)c1[O-].[Na+].[Na+] [Example 14, (Z)-5-(2-hydroxy-3-{N′-[3-methyl-5-oxo-1-(5,6,7,8-tetrahydro-naphthalen-2-yl)-1,5-dihydro-pyrazol-4-ylidene]-hydrazino}-phenyl)-furan-2-carboxylic acid disodium salt] | < 1 | 19 | 7.2 ± 2.13 | 5.25 ± 1.5 |  |  |  |  |  |  |  | solubility ([1]; methanol, organic solvent or mixture, methanol, read-out: solubility): 3720 µg/mL; solubility ([1]; water, read-out: solubility): 1880 µg/mL; Vd/F ([2]; both sexes, SD, rat, plasma, po, 50 mg/kg, read-out: Apparent Distribution Volume Vz/F): 9.54 ± 8.03 L/kg; AUC ([2]; both sexes, SD, rat, plasma, po, 50 mg/kg, read-out: Area Under Curve AUC): 132 ± 189 µg·h/mL; half-life ([2]; both sexes, SD, rat, plasma, po, 50 mg/kg, read-out: Half-Life t½ (converted)): 4.72 ± 2.82 h; Cmax ([2]; both sexes, SD, rat, plasma, po, 50 mg/kg, read-out: Plasma Conc. Cmax): 17800 ± 22600 ng/mL; CL/F ([2]; both sexes, rat, in vivo, po, read-out: Clearance CL/F (converted)): 40 mL/min/kg
CC1=NN(c2ccc3c(c2)CCC3)C(=O)/C1=N\Nc1cccc(-c2ccc(C(=O)O)o2)c1O [Example 16a, (Z)-5-{2-hydroxy-3-[N′-(1-indan-5-yl-3-methyl-5-oxo-1,5-dihydro-pyrazol-4-ylidene)-hydrazino]-phenyl}-furan-2-carboxylic acid] | < 1 | 100 | 4.03 ± 2.55 | 2.75 ± 0.96 | <1 | <1 | 15.0 ± 17.2 | 49.7 ± 45.8 | 1.82 ± 0.68 | 6810 ± 6230 |  | 
CC1=NN(c2ccc3c(c2)CCC3)C(=O)/C1=N\Nc1cccc(-c2csc(C(=O)O)c2)c1O [Example 19d, (Z)-4-{2-hydroxy-3-[N′-(1-indan-5-yl-3-methyl-5-oxo-1,5-dihydro-pyrazol-4-ylidene)-hydrazino]-phenyl}-thiophene-2-carboxylic acid] | < 1 | 43 |  |  | <1 | <1 | 36.1 ± 36.4 | 24 ± 13.8 | 1.84 ± 1.05 | 7910 ± 6840 | 2.50 ± 0.58 | Mean Residence Time MRT ([2]; 50 mg/kg): 3.01 ± 1.99 h
CC1=NN(c2ccc3c(c2)CCCC3)C(=O)/C1=N\Nc1cccc(-c2ccc(C(=O)O)o2)c1O [Example 23, (Z)-5-(2-hydroxy-3-{N′-[3-methyl-5-oxo-1-(5,6,7,8-tetrahydro-naphthalen-2-yl)-1,5-dihydro-pyrazol-4-ylidene]-hydrazino}-phenyl)-furan-2-carboxylic acid choline] |  | 43 |  |  |  |  | 123 ± 89.5 | 8.78 ± 4 | 7.61 ± 1.34 | 17200 ± 12300 | 3.25 ± 3.18 | Percentage of weight gain [3]: 8.48%; hygroscopicity [3]: Hygroscopicity (the percentage of hygroscopicity weight gain is less than 15%, but not less than 2%)
